Measurements: ChEMBL document CHEMBL5728513, “Substituted isoindolin-1-ones and 2,3-dihydro-1h-pyrrolo[3,4-c]pyridin-1-ones as hpk1 antagonists” (2021)

biological target: Mitogen-activated protein kinase kinase kinase kinase 1 (Homo sapiens, UniProt Q92918); assay: Biochemical Enzyme Assay: HPK1 biochemical enzyme assay: HPK1 enzyme inhibition was measured using a microfluidic mobility shift assay. […] Test compounds were titrated in ten point curves (top final assay concentration […]), and preincubated with enzyme/substrate mix for 30 min prior to initiation of the reaction by addition of ATP (1 mM final concentration) and substrate (1 Î¼M final concentration; Carna Biosciences) diluted in assay buffer supplemented by MgCl2 (final assay concentration of 5 mM). Following 60 min incubation at RT, the reaction was terminated by addition of 60 µl/well termination buffer (Carna Biosciences) and signal determination using a Caliper EZ Reader (Perkin Elmer, UK).
Sequence (Q92918 whole entry): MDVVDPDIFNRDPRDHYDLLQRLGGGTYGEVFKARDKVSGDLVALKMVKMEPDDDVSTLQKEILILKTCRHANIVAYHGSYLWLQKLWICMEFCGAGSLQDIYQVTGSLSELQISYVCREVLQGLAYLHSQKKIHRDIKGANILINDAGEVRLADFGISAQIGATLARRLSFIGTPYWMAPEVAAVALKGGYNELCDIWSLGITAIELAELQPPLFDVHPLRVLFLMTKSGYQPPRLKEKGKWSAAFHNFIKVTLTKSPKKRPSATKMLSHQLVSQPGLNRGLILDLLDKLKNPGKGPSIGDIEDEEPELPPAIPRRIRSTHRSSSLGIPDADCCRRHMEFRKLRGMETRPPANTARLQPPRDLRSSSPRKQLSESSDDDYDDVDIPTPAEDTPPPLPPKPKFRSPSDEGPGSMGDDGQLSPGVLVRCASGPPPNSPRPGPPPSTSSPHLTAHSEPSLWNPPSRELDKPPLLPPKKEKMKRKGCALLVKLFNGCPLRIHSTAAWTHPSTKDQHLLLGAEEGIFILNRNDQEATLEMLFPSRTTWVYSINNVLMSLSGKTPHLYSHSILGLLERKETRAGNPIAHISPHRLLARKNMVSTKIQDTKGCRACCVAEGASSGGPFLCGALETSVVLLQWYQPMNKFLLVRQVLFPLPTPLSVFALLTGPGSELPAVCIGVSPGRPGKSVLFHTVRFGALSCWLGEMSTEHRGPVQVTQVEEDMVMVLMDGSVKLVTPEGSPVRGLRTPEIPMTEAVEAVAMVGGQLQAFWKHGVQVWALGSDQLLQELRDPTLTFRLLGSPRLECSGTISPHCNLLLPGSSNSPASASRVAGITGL

SMILES | IC50
CCN(C)Cc1nc(Nc2ccc(-c3cnc4cc(F)ccn34)c3c2C(=O)NC3)ccc1[C@@H]1CCOC1 | < 100 nM
CO[C@H]1CCC(c2ccc(Nc3ccc(-c4cnc5cc(F)ccn45)c4c3C(=O)NC4)nc2CN(C)C)C1 (stereo partly drawn) | < 100 nM
CN(C)Cc1cc(Nc2ccc(-c3cnc4cc(F)ccn34)c3c2C(=O)NC3)ncc1C1(O)CCOCC1 | in the range around 550 nM
